{
  "source": "patent US20240197604A1",
  "about": "“COMPOUNDS WITH COOLING SENSATION PROPERTIES” (Givaudan SA, priority 2021, published 2024)",
  "key": {"[1]": {"assay": "Sensory evaluation in model dentifrice by a panel of trained flavourists", "type": "in vivo, human", "details": "10 ppm in unflavored model dentifrice, brushing with 1 g for 60 seconds, no rinsing", "method": "The oxalate of 2-(methylthio)-1-(2-(5-(p-tolyl)imidazol-2-yl)piperidin-1-yl)propan-1-one (prepared according to Example 1d) was dissolved at a concentration of 1 wt-% in propylene glycol. This solution was then dispersed in an appropriate quantity to obtain the desired final concentration of 10 ppm (parts per million) of the test compound into a model, unflavored dentifrice, the formula of which is given below (ingredients obtained from the suppliers respectively indicated in parenthesis).\nA panel of trained flavourists evaluated the dentifrice containing the oxalate, by brushing their teeth with 1 g of the dentifrice using a toothbrush for 60 seconds, followed by spitting, without rinsing the mouth afterwards for the duration of the evaluation. The flavourists evaluated and recorded the cooling performance as well as other sensorial and organoleptic attributes at different time-points over a period of 90 minutes. The following tasting notes were recorded: Good coolant. Clean, with a pleasant, mild tingling effect. Active in all areas of the mouth."}, "[2]": {"target": "T1, hTRPM8 (Homo sapiens, UniProt Q7Z2W7)", "T1 construct": "expressed in transfected cells", "T1 sequence (Q7Z2W7 whole entry)": "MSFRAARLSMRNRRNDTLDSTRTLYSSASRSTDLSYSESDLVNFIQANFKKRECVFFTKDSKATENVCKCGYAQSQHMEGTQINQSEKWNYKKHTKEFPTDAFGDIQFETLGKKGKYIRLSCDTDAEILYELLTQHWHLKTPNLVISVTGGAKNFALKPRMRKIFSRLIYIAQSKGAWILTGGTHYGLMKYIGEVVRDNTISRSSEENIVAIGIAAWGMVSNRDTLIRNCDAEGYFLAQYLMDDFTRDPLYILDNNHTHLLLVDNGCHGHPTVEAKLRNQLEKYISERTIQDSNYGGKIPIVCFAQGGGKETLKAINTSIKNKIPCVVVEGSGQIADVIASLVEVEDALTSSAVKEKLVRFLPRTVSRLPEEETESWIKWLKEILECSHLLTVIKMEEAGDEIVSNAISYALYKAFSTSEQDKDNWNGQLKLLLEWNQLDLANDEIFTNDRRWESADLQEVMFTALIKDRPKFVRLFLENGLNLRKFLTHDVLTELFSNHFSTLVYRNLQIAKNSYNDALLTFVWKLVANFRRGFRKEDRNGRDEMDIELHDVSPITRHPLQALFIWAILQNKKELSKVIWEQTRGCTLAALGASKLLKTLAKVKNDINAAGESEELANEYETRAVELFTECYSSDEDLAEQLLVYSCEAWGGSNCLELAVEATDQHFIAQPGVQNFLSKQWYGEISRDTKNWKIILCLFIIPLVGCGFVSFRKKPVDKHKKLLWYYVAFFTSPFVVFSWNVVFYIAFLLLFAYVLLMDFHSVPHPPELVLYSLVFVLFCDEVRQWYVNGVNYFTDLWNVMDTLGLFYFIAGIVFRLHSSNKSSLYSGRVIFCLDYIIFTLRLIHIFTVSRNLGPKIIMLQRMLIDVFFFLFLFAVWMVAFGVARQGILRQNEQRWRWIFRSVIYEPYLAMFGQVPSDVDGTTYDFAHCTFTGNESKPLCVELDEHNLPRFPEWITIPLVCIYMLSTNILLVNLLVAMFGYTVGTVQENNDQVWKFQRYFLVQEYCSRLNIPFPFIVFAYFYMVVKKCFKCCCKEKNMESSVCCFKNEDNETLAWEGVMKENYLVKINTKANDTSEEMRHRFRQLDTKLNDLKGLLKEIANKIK", "assay": "Assay on TRPM8 modulators: calcium imaging (Fluo-4, Flexstation 3) in HEK293 cell line stably expressing hTRPM8", "type": "cell-based", "details": "HEK293 cells stably expressing hTRPM8; Fluo-4 calcium imaging; sigmoidal dose-response fit; read-out: EC50 value (TRPM8 agonist, calcium influx)", "method": "A HEK293 cell line stably expressing hTRPM8 was generated according to Klein et al., (Chem. Senses 36: 649-658, 2011) and receptor activation was monitored by calcium imaging in a Flexstation. For Ca-imaging assays of TRPM8 channel activation, cells were seeded on day 0 at a density of 12000 cells per well in Dulbecco's modified Eagle medium (DMEM) containing 9% foetal bovine serum in black, clear bottom 96-well plates that had been coated with 0.001% polyethyleneimine (molecular weight=60 000, Acros Organics). On day 2, agonists were evaluated via calcium imaging using Fluo-4. Briefly, growth medium was discarded, and the cells were incubated in the dark for 1 h at 37° C. in 50 μL loading buffer consisting of 2.7 μM Fluo-4 AM (Invitrogen) and […] probenecid (Sigma-Aldrich) in DMEM (without serum). […] The cells were then washed five times with 100 μL assay buffer and then calcium influx to serial dilutions of 2-(1-(2-(methylthio)propanoyl)piperidin-2-yl)-5-(p-tolyl)-1H-imidazolium carboxyformate was measured in a Flexstation 3 (Molecular Devices). […] Fluorescence was continuously monitored for 15 seconds prior to ligand addition and for 105 seconds after ligand addition, for a total of 120 seconds. Maximal receptor activation in relation to solvent control and relative to 31.6 μM menthol is determined. […]"}},
  "data": [
    {"smiles": "CSC(C)C(=O)N1CCCCC1c1ncc(-c2ccc(C)cc2)[nH]1.O=C(O)C(=O)O", "note": "(stereo not shown) [Example 1d, 2-(1-(2-(methylthio)propanoyl)piperidin-2-yl)-5-(p-tolyl)-1H-imidazolium carboxyformate]", "values": [
      {"measurement": "onset of cooling effect (tasting notes)", "setting": "[1]", "value": "Fast acting (upfront cooling) with effect perceived already during brushing"},
      {"measurement": "cooling performance (tasting notes)", "setting": "[1]; evaluated over 90 minutes", "value": "Good coolant"},
      {"measurement": "longevity of cooling effect (tasting notes)", "setting": "[1]; evaluated over 90 minutes", "value": "Strong cooling peak with long-lasting effect up to one hour"},
      {"measurement": "EC50", "setting": "[2]", "value": "< 0.01", "unit": "µM"}
    ]}
  ]
}
